Assay results published in US20020198254A1, “Polyamide analogs” (priority 2000, published 2002).
Values after ≈ are worked out from the molar mass of the structure shown. Read-outs that look alike come from different tables or passages of the source.

Legend:
Format in all cases: cell-based
[1] = system: VRE-UCD3 (vancomycin resistant enterococci); assay: MIC assay, VRE strain UCD-3; conditions: 25 μg/mL Vancomycin - 24 h; for MIC: Enterococcus, VRE, read-out: MIC Assay VRE Strains: UCD-3 van25
Experimental: (§1) These assays are adapted from NCCLS protocols M7-A4 and M27-A (NCCLS vol 17:9 and vol 17:2) as modified by Sandven, S. Clin. Micro. (1999) 37:12, p.3856-3859. MIC values for Aspergillus fumigatus were determined using NCCLS protocol M38-P.
(§2) All compounds were dissolved in 100% DMSO to a stock concentration of 10 mM and use fresh or stored at −80° C. Stock compounds were kept frozen until needed and used freshly with no more then one freeze-thaw cycle. When used for test purposes, compounds were diluted in the appropriate media depending on the organism being tested.
(§3) For yeast and aspergillus species, seven 1:2 serial dilutions of compound in appropriate media buffered with MOPS at pH 7.0 were prepared such that the final starting test compound concentrations were 50.0 uM for yeast and 50 uM aspergillus species. For bacteria, dilutions were made in growth media used for the particular bacteria being tested.
(§4) Inoculums are made in the same manner as yeast except all dilutions are made in normal saline, with a final dilution of 1:200 and an inoculum of 10 μL. VRE are vancomycin resistant enterococci, BM4147 and UCD-3 represent two different sources of VRE. MRSA are […] resistant Staphylococcus Aureus.

[2] = system: VRE-BM4147 (vancomycin resistant enterococci); assay: MIC assay, VRE strain BM4147; conditions: 25 μg/mL Vancomycin - 24 h; for MIC: Enterococcus, VRE, read-out: MIC Assay VRE Strains: BM4147 van25
Experimental: as §1, §2, §3, §4

Bacillus cereus = assay: MIC assay, B. cereus; conditions: CAMHB, 16 h; for MIC: Bacillus cereus, read-out: MIC Assay Other Strains: B. cereus
Experimental: as §1, §2, §3, §4

Pseudomonas aeruginosa = assay: MIC assay, P. aeruginosa; conditions: CAMHB, 16 h
Experimental: as §1, §2, §3, §4

Staphylococcus aureus = assay: MIC assay, S. aureus; conditions: CAMHB, 16 h
Experimental: as §1, §2, §3, §4

Candida albicans = assay: MIC assay, yeast C. albicans; conditions: RPMI, 48 h, Alamar Blue; for MIC: Candida albicans
Aspergillus fumigatus = assay: MIC assay, filamentous fungi A. fumigatus; conditions: 48 h at 35C, no visible growth; for MIC: Aspergillus fumigatus
[3] = system: MRSA (methylacillin resistant Staphylococcus Aureus); assay: MIC assay, MRSA; conditions: for MIC: Staphylococcus aureus, MRSA
Experimental: as §1, §2, §3, §4

E coli = assay: MIC assay, E coli
Experimental: as §1, §2, §3, §4

WST-CEM T-cell line = assay: Toxicity screen on WST-CEM T-cell line
Experimental: Toxicity screen was done on a WST-CEM T-cell line and the minimum percent verses a no drug control was measured.

[4] = WST-CEM T-cell line, ND = no drug control

Row | Compound | MIC Assay VRE Strains: UCD-3 van25 [1] | MIC Assay VRE Strains: BM4147 van25 [2] | MIC Assay Other Strains: B. cereus (Bacillus cereus) | MIC Assay Other Strains: P. aeruginosa (Pseudomonas aeruginosa) | MIC Assay Other Strains: S. aureus (Staphylococcus aureus) | MIC [1] | MIC [2] | MIC (Candida albicans) | MIC (Aspergillus fumigatus) | MIC [3] | MIC (E coli) | CEM: toxicity screen, minimum percent verses a no drug control (WST-CEM T-cell line; [4]) | MIC (Bacillus cereus) | MIC Assay C. Albicans (Candida albicans) | MIC Assay A fumigatus (Aspergillus fumigatus) | MIC Assay MRSA [3] | MIC Assay E coli (E coli) | CEM: toxicity screen, minimum percent verses a no drug control (WST-CEM T-cell line)
1 | 1,5-bis-{4-[(NH2(CH2)3CONH)-1-methyl-1H-pyrrol-2-yl-carbonylamino]-benzimidazole [Compound 78] | >45.5 µM | >45.5 µM | 22.7 µM | >45.5 µM | 45.5 µM | – | – | – | – | – | – | – | – | – | – | – | – | –
2 | N=C(N)NCC(=O)Nc1cc(C(=O)NCCNC(=O)c2cc(NC(=O)CNC(=N)N)cn2CC2CC2)n(CC2CC2)c1 [Compound 174] | – | – | – | – | – | > 45.5 µM | > 45.5 µM | > 44.4 µM | > 50 µM | > 45.5 µM | > 45.5 µM | 92.9% ND | – | – | – | – | – | –
3 | CC(C)CCn1cc(NC(=O)CNC(=N)N)cc1C(=O)Nc1ccc(NC(=O)c2cc(NC(=O)CNC(=N)N)cn2CCC(C)C)cc1 [Compound 189a] | – | – | – | – | – | 11.4 µM | 11.4 µM | 22.2 µM (≈ 14.7 µg/mL) | 12.5 µM (≈ 8.28 µg/mL) | – | 11.4 µM (≈ 7.56 µg/mL) | 7.7% ND | 2.8 µM (≈ 1.86 µg/mL) | – | – | – | – | –
4 | Cn1cc(NC(=O)CNC(=N)N)cc1C(=O)Nc1ccc2[nH]c(NC(=O)c3cc(NC(=O)CNC(=N)N)cn3C)nc2c1 [Compound 79] | 11.4 µM | 45.5 µM | 11.4 µM (≈ 6.73 µg/mL) | >45.5 µM | >45.5 µM | – | – | – | – | – | – | – | – | – | – | – | – | –
5 | CC(C)CCn1cc(NC(=O)CN)cc1C(=O)Nc1ccc(NC(=O)c2cc(NC(=O)CN)cn2CCC(C)C)cc1 [Compound 188a] | 11.4 µM | 11.4 µM | 22.7 µM (≈ 13.1 µg/mL) | – | – | – | – | – | – | – | – | 6.9% ND | – | >44.4 µM | >50 µM | 11.4 µM (≈ 6.6 µg/mL) | 22.7 µM (≈ 13.1 µg/mL) | –
6 | CC/N=C(/NCCN(C)C)Nc1cc(C(=O)Nc2ccc(NC(=O)c3cc(N/C(=N/CC)NCCN(C)C)cn3CCC(C)C)cc2)n(CCC(C)C)c1 [Compound 191] | – | – | – | – | – | 11.4 µM | – | 11.1 µM (≈ 8.29 µg/mL) | 12.5 µM (≈ 9.34 µg/mL) | – | 22.7 µM (≈ 17 µg/mL) | 3.7% ND | 5.7 µM (≈ 4.26 µg/mL) | – | – | – | – | –
7 | NCC(=O)Nc1cc(C(=O)NCCNC(=O)c2cc(NC(=O)CN)cn2CC2CC2)n(CC2CC2)c1 [Compound 169, Bis-1,2-[4-(2-amino-acetylamino)-1-cyclopropylmethyl-1H-pyrrol-2-yl-carbonylamino]-ethane] | – | – | – | – | – | > 45.5 µM | > 45.5 µM | > 44.4 µM | > 50 µM | > 45.5 µM | 45.5 µM (≈ 22.7 µg/mL) | 100% ND | > 45.5 µM | – | – | – | – | –
8 | 1,5-bis-{4-[(NH2CH2CONH)-1-methyl-1H-pyrrol-2-yl-carbonylamino]-benzimidazole [Compound 76] | >45.5 µM | >45.5 µM | >45.5 µM | >45.5 µM | >45.5 µM | – | – | – | – | – | – | – | – | >44.4 µM | – | – | – | –
9 | CC(C)CCn1cc(NC(=O)CNC(=N)N)cc1C(=O)Nc1ccc2ccc(NC(=O)c3cc(NC(=O)CNC(=N)N)cn3CCC(C)C)cc2c1 [Compound 189b] | – | – | – | – | – | 5.7 µM | – | – | 3.1 µM (≈ 2.21 µg/mL) | – | 45.5 µM (≈ 32.4 µg/mL) | 10.2% ND | 2.8 µM (≈ 2 µg/mL) | – | – | – | – | –
10 | Cn1cc(NC(=O)CCCNC(=N)N)cc1C(=O)Nc1ccc2[nH]c(NC(=O)c3cc(NC(=O)CCCNC(=N)N)cn3C)nc2c1 [Compound 81] | >45.5 µM | >45.5 µM | 5.7 µM (≈ 3.69 µg/mL) | >45.5 µM | 45.5 µM (≈ 29.4 µg/mL) | – | – | – | – | – | – | – | – | 22.2 µM (≈ 14.4 µg/mL) | – | – | – | –
11 | CC(C)CCn1cc(NC(=O)CN)cc1C(=O)Nc1ccc2ccc(NC(=O)c3cc(NC(=O)CN)cn3CCC(C)C)cc2c1 [Compound 188b] | – | – | 22.7 µM (≈ 14.3 µg/mL) | – | – | – | – | – | – | – | – | 9.2% ND | – | 22.2 µM (≈ 14 µg/mL) | >50 µM | – | 22.7 µM (≈ 14.3 µg/mL) | –
12 | O=C(NC1CCC(NC(=O)c2cc(NC(=O)C3CCCN3)cn2CC2CC2)CC1)c1cc(NC(=O)C2CCCN2)cn1CC1CC1 (stereo not drawn) [Compound 171, Bis-trans-1,4-[4-(pyrrolidine-2-carbonyl-amino)-1-cyclopropylmethyl-1H-pyrrol-2-yl-carbonylamino]cyclohexane] | – | – | – | – | – | > 45.5 µM | > 45.5 µM | > 44.4 µM | > 50 µM | > 45.5 µM | > 45.5 µM | 91.1% ND | – | – | – | – | – | –
13 | 1,5-bis-{4-[(NH2(CH2)2CONH)-1-methyl-1H-pyrrol-2-yl-carbonylamino]-benzimidazole [Compound 77] | >45.5 µM | >45.5 µM | 22.7 µM | >45.5 µM | 45.5 µM | – | – | – | – | – | – | – | – | >44.4 µM | – | – | – | –
14 | Cn1cc(NC(=O)CCNC(=N)N)cc1C(=O)Nc1ccc2[nH]c(NC(=O)c3cc(NC(=O)CCNC(=N)N)cn3C)nc2c1 [Compound 80] | >45.5 µM | >45.5 µM | 5.7 µM (≈ 3.53 µg/mL) | >45.5 µM | >45.5 µM | – | – | – | – | – | – | – | – | >44.4 µM | – | – | – | –
15 | NCCCC(N)C(=O)N1CCCC1C(=O)Nc1cc(C(=O)NC2CCC(NC(=O)c3cc(NC(=O)C4CCCN4C(=O)C(N)CCCN)cn3CC3CC3)CC2)n(CC2CC2)c1 (stereo not drawn) [Compound 172, Bis-trans-1,4-{[4-(2,5-diamino-pentanoyl)pyrrolidine-2-carbonyl-amino]-1-cyclopropylmethyl-1H-pyrrol-2-yl-carbonylamino}cyclohexane] | >45.5 µM | >45.5 µM | – | – | – | – | – | – | – | – | – | – | – | >44.4 µM | >50 µM | >45.5 µM | >45.5 µM | 25.5% ND
16 | CC(C)C(N)C(=O)Nc1cc(C(=O)NCCNC(=O)c2cc(NC(=O)C(N)C(C)C)cn2CC2CC2)n(CC2CC2)c1 (stereo not drawn) [Compound 170, Bis-1,2-[4-(2-amino-3-methyl-butyrylamino)-1-cyclopropylmethyl-1H-pyrrol-2-yl-carbonylamino]-ethane] | >45.5 µM | >45.5 µM | – | – | – | – | – | – | – | – | – | – | – | >44.4 µM | >50 µM | >45.5 µM | >45.5 µM | 90.0% ND
17 | NC(Cc1c[nH]cn1)C(=O)Nc1cc(C(=O)NC2CCC(NC(=O)c3cc(NC(=O)C(N)Cc4c[nH]cn4)cn3CC3CC3)CC2)n(CC2CC2)c1 (stereo not drawn) [Compound 173, Bis-trans-1,4-{4-[2-amino-3-(1H-imidazol-4-yl)propyonylamino]-1-cyclopropylmethyl-1H-pyrrol-2-yl-carbonylamino]cyclohexane] | >45.5 µM | >45.5 µM | – | – | – | – | – | – | – | – | – | – | – | >44.4 µM | >50 µM | >45.5 µM | >45.5 µM | 87.2% ND
